# From PMC3408433, “Selective Cytotoxicity of Amidinopiperidine Based Compounds Towards Burkitt’s Lymphoma Cells Involves Proteasome Inhibition” (PLoS ONE, 2012)
# Assays:
# [1] = test system: Ramos Burkitt’s lymphoma cells; test: Metabolic activity assay (MTS), Ramos; assay type: cell-based, human; conditions: 24 h; for residual metabolic activity relative to control: 50 µM; for cytotoxicity group (Figure 3A) / viability at 100 µM: 100 µM; for viability at 100 µM: Homo sapiens, read-out: residual metabolic activity relative to untreated control
# Method: When investigating the potency of selected serine protease inhibitors to induce cell death in human B lymphoma cells, we identified a set of compounds cytotoxic for Burkitt’s lymphoma. Using a metabolic activity assay (MTS), we evaluated the proliferation rate of Ramos Burkitt’s lymphoma cells, in the presence of serine protease inhibitors. Cells were treated for 24 h with the compound of interest at concentrations of 100 µM (1–13, 15, 16) or 50 µM (14). After a comparison of metabolic activity relative to that in the untreated control, three groups with distinct modes of action were determined (Figure 3A). […] The second group (compounds 1–3, 5, 7 and 13) caused a moderate decrease (50% to 80%) relative to untreated cells. The last group of compounds (11, 15, 16) severely impaired the metabolic activity, such that it fell to under 6%.
# (§1) Cells (1×10^5 cells/mL for Ramos, Daudi, U937 and Jurkat, and 1×10^6 cells/mL for PBMC) were treated with the appropriate amounts of compounds of interest or corresponding vehicle (control cells), then seeded in triplicate in 96 well plates. The metabolic activity was assessed using the CellTiter 96® Aqueous One Solution Cell Proliferation Assay (Promega, Madison/WI, USA), in accordance with the manufacturer’s instructions.
# [2] = test system: peripheral blood mononuclear cells (PBMC); test: Metabolic activity assay (MTS), PBMC; assay type: cell-based, human; conditions: 50 µM, 24 h
# Method: Compounds 11, and 14–16 were further tested for selective cytotoxicity. The experiments were conducted on freshly isolated primary peripheral blood mononuclear cells (PBMC) and three other haematological cancers: human T cell leukaemia (Jurkat), human histiocytic lymphoma (U937) and human Burkitt’s lymphoma (Daudi). An MTS assay was performed following 24 h of treatment with the compound of interest at 50 µM. […] The inhibition of proliferation in Ramos cells, mediated with compounds 15 and 16, was concentration dependent.
# as §1
# Ramos cells = test: Cell cycle analysis (PI staining); assay type: cell-based, human; conditions: for cell cycle distribution / percentage of cells in the sub-G1 phase (< 2n): 50 µM, 24 h; for percentage of cells in the sub-G1 phase (< 2n): PI staining; for number of hypodiploid cells: 48 h treatment, untreated 3.4%
# Method: Ramos cells (5×10^5 cells) were treated with the compound of interest for 24 h. The cells were then washed with PBS and subjected to fixation with 80% ethanol at –20°C for 15 min. Fixated cells were pelleted by centrifugation and rehydrated in 5 mL of PBS for 15 min at room temperature. Collected cells were resuspended in 500 µL staining buffer (3 µM propidium iodide, 100 mM Tris, pH 7.4, 150 mM NaCl, 1 mM CaCl2, 0.5 mM MgCl2, 0.1% Nonident P-40). After 15 min of incubation, samples were analysed on a FACScalibur and evaluated using FlowJo software (BD bioscience, Franklin Lakes/NJ, USA).
# [3] = test system: p105 and IκBα in Ramos cells; test: Western blot analysis of phospho-p105, p105, phospho-IκB and IκB; assay type: cell-based, human; conditions: total level of both molecules remained the same
# Method: (§2) Ramos cells were seeded in 6-well culture plates at a concentration of 1×10^6 cells/mL and treated with the compound of interest or corresponding vehicle for 1 h, 2 h or 6 h. After the indicated time points, cells were harvested, washed in ice-cold PBS and lysed in modified RIPA buffer (50 mM Tris-HCl, pH 7.4, 150 mM NaCl, 1% NP−40, 0.25% Na-deoxycholate, 1 mM EDTA, 1 µg/mL aprotinin, 1 mM PMSF and 1× Halt Phosphatase inhibitor cocktail (Thermo Scientific, Pierce Biotechnology, IL, USA)). The lysates were sonicated, rocked on ice for 30 min and centrifuged at 13,000 rpm at 4°C for 15 min. Protein samples were electrophoresed in SDS-polyacrylamide gels and then transferred to nitrocellulose membranes. The primary antibodies used were against ubiquitin, phospho-IκBα, IκBα, p65 and caspase-3 (Cell Signaling, Danvers/MA, USA), and p105/p50 (Santa Cruz Biotechnology, Inc., Santa Cruz/CA, USA), and ß-actin (Sigma-Aldrich). Following incubation with the primary antibody, membranes were washed six times and incubated for 1 h at room temperature with the corresponding dilution of the appropriate secondary antibody conjugated with horseradish peroxidase (Upstate, Temecula, CA, USA). The immunoreactivity of respective proteins of interest was determined by chemiluminescence using the SuperSignal West Femto substrate (Pierce, IL, USA), in accordance with the manufacturer's instructions. […]
# [4] = test system: p65 and p50 translocation in Ramos cells; test: Subcellular fractionation and Western blot of p65 and p50; assay type: cell-based, human; conditions: 50 µM
# Method: as §2
# 20S proteasome = molecular target: T1, 20S proteasome (Homo sapiens, UniProt P28072+P28074+Q99436); test: Rapid dilution assay (reversibility); assay type: biochemical
# T1 construct: purchased Boston Biochem, Inc
# Method: The enzyme-inhibitor complex was diluted 100-fold with the substrate of interest to a final volume of 200 µL, initiating the reaction. In the case of reversibility of the inhibitor the residual enzyme activity was expected to be around 90%.
# Thrombin = molecular target: Thrombin; parameters: method as in PMID 15497744, PMID 15544050, PMID 17484277; conditions: amidolytic assay, chromogenic substrate; determined previously; cited from earlier work
# Trypsin = molecular target: Trypsin; parameters: method as in PMID 15497744, PMID 15544050, PMID 17484277; conditions: amidolytic assay, chromogenic substrate; determined previously; cited from earlier work
# [5] = test system: Ramos Burkitt’s lymphoma cells; test: Metabolic activity assay (MTS), Ramos; assay type: cell-based; conditions: Homo sapiens, 24 h, read-out: IC50, inhibition of proliferation (metabolic activity)
# [6] = test system: ubiquitinated proteins in Ramos cells; test: Western blot analysis of ubiquitinated proteins; assay type: cell-based, human; conditions: 6 h treatment
# Method: as §2
SMILES,residual metabolic activity relative to control [1],cytotoxicity group (Figure 3A) [1],viability at 100 µM [1],residual metabolic activity relative to control [2],cell cycle distribution (Ramos cells),percentage of cells in the sub-G1 phase (< 2n) (Ramos cells),number of hypodiploid cells (Ramos cells),levels of p105 and IκBα (phosphorylated forms) [3],translocation of p65 and p50 from the cytoplasm into the nucleus [4],reversibility of proteasome inhibition (20S proteasome),Ki (Thrombin),Ki (Trypsin),IC50 [5],polyubiquitinated proteins [6]
N=C(N)N1CCC(CN(NS(=O)(=O)c2ccc3ccccc3c2)C(=O)N2CCCCC2)CC1 [Compound 15],severe and selective decrease,"severely cytotoxic (severely impaired the metabolic activity, such that it fell to under 6%)",< 6%,no or only moderate decreases,accumulation of cells in the S phase,8.7%,42.5%,accumulation of the phosphorylated forms of p105 and IκBα,no translocation of p65 and p50,reversibly inhibit,0.47 µM,39 µM,18 µM,–
N=C(N)N1CCC(CN(NS(=O)(=O)c2ccc3ccccc3c2)C(=O)N2CCCCCC2)CC1 [Compound 16],severe and selective decrease,"severely cytotoxic (severely impaired the metabolic activity, such that it fell to under 6%)",< 6%,no or only moderate decreases,accumulation of cells in the S phase,22.7%,51.1%,–,–,reversibly inhibit,0.5 µM,66 µM,22 µM,increased amount of polyubiquitinated proteins
